Test results from PubChem BioAssay (NCI).
Values joined by “and” are separate entries in the source; they are usually repeats but may differ in a detail not shown here. Identical values can stand only once.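 All cell lines were grown in 96-well plates and treated with compound for 48 hours. GI50: concentration for 50% inhibition of growth. TGI: total growth inhibition.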

Columns and labels:
Assay in all cases: growth of human tumour cells (NCI), 48 h
A549 NSCLC = test system: A549 NSCLC
BT-549 breast = test system: BT-549 breast
LOX IMVI melanoma = test system: LOX IMVI melanoma
MDA-MB-435 = test system: MDA-MB-435
NCI-H226 lung = test system: NCI-H226 lung
OVCAR-8 ovarian = test system: OVCAR-8 ovarian
SW-620 colon = test system: SW-620 colon
U251 CNS = test system: U251 CNS
UACC-257 melanoma = test system: UACC-257 melanoma

## Nc1nn2c(=O)c3ccccc3nc2s1
A549 NSCLC
  TGI: > 100 µM
BT-549 breast
  TGI: 77.9 µM
LOX IMVI melanoma
  TGI: 44.7 µM
MDA-MB-435
  TGI: > 100 µM
NCI-H226 lung
  TGI: 91.1 µM
OVCAR-8 ovarian
  TGI: > 100 µM
SW-620 colon
  TGI: 38.5 µM
U251 CNS
  TGI: > 100 µM
UACC-257 melanoma
  TGI: > 100 µM

## Cc1cnc2c(c1)C(=O)C1=C(C2=O)C2OC(=O)CC2OC1(C)C (configuration not stated)
A549 NSCLC
  TGI: 5.62 µM
BT-549 breast
  TGI: 0.363 µM
MDA-MB-435
  TGI: 0.912 µM
NCI-H226 lung
  TGI: 2.31 µM
OVCAR-8 ovarian
  TGI: 2.19 µM
SW-620 colon
  TGI: 0.768 µM
U251 CNS
  TGI: 0.519 µM
UACC-257 melanoma
  TGI: 0.469 µM

## CCOC(=O)/C=C(\C(=O)OCC)n1ccc(=O)n(Cc2cn(COCCOC(C)=O)nn2)c1=O
A549 NSCLC
  TGI: > 100 µM
BT-549 breast
  TGI: 33.2 µM
LOX IMVI melanoma
  TGI: 34.9 µM
MDA-MB-435
  TGI: 37 µM
NCI-H226 lung
  TGI: 29.7 µM
OVCAR-8 ovarian
  TGI: 31.1 µM
SW-620 colon
  TGI: 31.4 µM
U251 CNS
  TGI: 36.7 µM
UACC-257 melanoma
  TGI: 47.2 µM

## COC(=O)/C(C#N)=C(/NCCN)Nc1ccccc1
A549 NSCLC
  TGI: > 100 µM
BT-549 breast
  TGI: > 100 µM
LOX IMVI melanoma
  TGI: > 100 µM
MDA-MB-435
  TGI: > 100 µM
NCI-H226 lung
  TGI: > 100 µM
OVCAR-8 ovarian
  TGI: > 100 µM
SW-620 colon
  TGI: > 100 µM
U251 CNS
  TGI: > 100 µM
UACC-257 melanoma
  TGI: > 100 µM

## COC(=O)C1=Nc2c(C)nn(-c3ccccc3)c2N=C(c2ccccc2)C1
A549 NSCLC
  TGI: > 10 µM
BT-549 breast
  TGI: > 10 µM
LOX IMVI melanoma
  TGI: > 10 µM
MDA-MB-435
  TGI: > 10 µM
OVCAR-8 ovarian
  TGI: > 10 µM
SW-620 colon
  TGI: > 10 µM
U251 CNS
  TGI: > 10 µM
UACC-257 melanoma
  TGI: > 10 µM

## CCOC(=O)c1nnsc1NN
A549 NSCLC
  TGI: > 100 µM
BT-549 breast
  TGI: > 100 µM
LOX IMVI melanoma
  TGI: > 100 µM
MDA-MB-435
  TGI: > 100 µM
NCI-H226 lung
  TGI: > 100 µM
OVCAR-8 ovarian
  TGI: > 100 µM
SW-620 colon
  TGI: > 100 µM
U251 CNS
  TGI: > 100 µM
UACC-257 melanoma
  TGI: > 100 µM

## O=C(c1ccncc1)C1C(=O)c2ccccc2C1C1(O)c2ccccc2CC1C(O)c1ccncc1 (configuration not stated)
A549 NSCLC
  TGI: > 100 µM
BT-549 breast
  TGI: > 100 µM
LOX IMVI melanoma
  TGI: > 100 µM
MDA-MB-435
  TGI: 47.9 µM
NCI-H226 lung
  TGI: > 100 µM
OVCAR-8 ovarian
  TGI: > 100 µM
SW-620 colon
  TGI: > 100 µM
U251 CNS
  TGI: > 100 µM
UACC-257 melanoma
  TGI: > 100 µM

## Cc1c2c(OCC3CCCCO3)nn(C)c(=O)c2c(C)n1-c1ccccc1 (configuration not stated)
A549 NSCLC
  TGI: 33.7 µM
BT-549 breast
  TGI: 38.2 µM
LOX IMVI melanoma
  TGI: 33.7 µM
MDA-MB-435
  TGI: 37.4 µM
NCI-H226 lung
  TGI: 42.7 µM
OVCAR-8 ovarian
  TGI: 42.2 µM
U251 CNS
  TGI: 31.2 µM
UACC-257 melanoma
  TGI: 34.9 µM

## CCCCCCCCCc1nn2c(Cc3ccccc3)nnc2s1
A549 NSCLC
  TGI: 41.5 µM
BT-549 breast
  TGI: 33.6 µM
MDA-MB-435
  TGI: 62 µM
OVCAR-8 ovarian
  TGI: 29.8 µM
SW-620 colon
  TGI: 33.5 µM
U251 CNS
  TGI: 36.6 µM
UACC-257 melanoma
  TGI: 54.1 µM

## O=c1cc(-c2ccccc2)oc2c(-c3cc(Cl)cc4c(=O)cc(-c5ccccc5)oc34)cc(Cl)cc12
A549 NSCLC
  TGI: > 100 µM
BT-549 breast
  TGI: > 100 µM
LOX IMVI melanoma
  TGI: > 100 µM
MDA-MB-435
  TGI: > 100 µM
NCI-H226 lung
  TGI: 83 µM
OVCAR-8 ovarian
  TGI: > 100 µM
SW-620 colon
  TGI: > 100 µM
U251 CNS
  TGI: > 100 µM

## COc1cc(/C=C/C=C2\CC/C(=C\C=C\c3ccc(O)c(OC)c3)C2=O)ccc1O
A549 NSCLC
  TGI: > 100 µM
BT-549 breast
  TGI: > 100 µM
LOX IMVI melanoma
  TGI: > 100 µM
MDA-MB-435
  TGI: > 100 µM
NCI-H226 lung
  TGI: > 100 µM
OVCAR-8 ovarian
  TGI: > 100 µM
SW-620 colon
  TGI: > 100 µM
U251 CNS
  TGI: > 100 µM
UACC-257 melanoma
  TGI: > 100 µM

## COc1ccc(CN2C3CC2CN(c2ccc(-c4cc(OCC(C)(C)O)cn5ncc(C#N)c45)cn2)C3)cn1
A549 NSCLC
  GI50: 6.27 µM
  TGI: > 100 µM
BT-549 breast
  GI50: 3.34 µM
  TGI: > 100 µM
LOX IMVI melanoma
  GI50: 15.1 µM
  TGI: > 100 µM
MDA-MB-435
  GI50: > 100 µM
  TGI: > 100 µM
NCI-H226 lung
  GI50: 1.66 µM
  TGI: > 100 µM
OVCAR-8 ovarian
  GI50: 13.2 µM
  TGI: > 100 µM
SW-620 colon
  GI50: 4.49 µM
  TGI: > 100 µM
U251 CNS
  GI50: 4.55 µM
  TGI: > 100 µM
UACC-257 melanoma
  GI50: > 100 µM
  TGI: > 100 µM

## CC(=O)c1ccc2c(c1)CC1(C2)Cc2ccccc2C1=O (configuration not stated)
A549 NSCLC
  TGI: > 100 µM
BT-549 breast
  TGI: > 100 µM
LOX IMVI melanoma
  TGI: > 100 µM
MDA-MB-435
  TGI: > 100 µM
NCI-H226 lung
  TGI: > 100 µM
OVCAR-8 ovarian
  TGI: > 100 µM
SW-620 colon
  TGI: > 100 µM
U251 CNS
  TGI: > 100 µM
UACC-257 melanoma
  TGI: 50.8 µM

## COc1cc2c(cc1Cc1c(F)cccc1Cl)nc(-c1c(F)cccc1Cl)n2Cc1c(F)cccc1Cl
A549 NSCLC
  TGI: > 100 µM
BT-549 breast
  TGI: > 100 µM
MDA-MB-435
  TGI: > 100 µM
NCI-H226 lung
  TGI: > 100 µM
OVCAR-8 ovarian
  TGI: > 100 µM
U251 CNS
  TGI: > 100 µM
UACC-257 melanoma
  TGI: > 100 µM

## CC(C)OC(=O)OCSc1ccccc1N=Cc1cccc([N+](=O)[O-])c1
A549 NSCLC
  TGI: > 10 µM
BT-549 breast
  TGI: > 10 µM
LOX IMVI melanoma
  TGI: > 10 µM
MDA-MB-435
  TGI: > 10 µM
NCI-H226 lung
  TGI: > 10 µM
OVCAR-8 ovarian
  TGI: > 10 µM
SW-620 colon
  TGI: > 10 µM
U251 CNS
  TGI: > 10 µM
UACC-257 melanoma
  TGI: > 10 µM

## [O-]/[N+](=C\c1ccccc1OC(=S)S)c1ccc(Cl)cc1
A549 NSCLC
  TGI: > 100 µM
BT-549 breast
  TGI: > 100 µM
LOX IMVI melanoma
  TGI: 38.8 µM
MDA-MB-435
  TGI: 47.3 µM
NCI-H226 lung
  TGI: > 100 µM
OVCAR-8 ovarian
  TGI: 30.2 µM
SW-620 colon
  TGI: > 100 µM
U251 CNS
  TGI: > 100 µM
UACC-257 melanoma
  TGI: > 100 µM

## CC(=O)OC(Cn1cncn1)(Cn1cncn1)c1ccc(Cl)cc1Cl
A549 NSCLC
  TGI: > 100 µM
BT-549 breast
  TGI: > 100 µM
LOX IMVI melanoma
  TGI: > 100 µM
MDA-MB-435
  TGI: > 100 µM
NCI-H226 lung
  TGI: > 100 µM
OVCAR-8 ovarian
  TGI: > 100 µM
SW-620 colon
  TGI: > 100 µM
U251 CNS
  TGI: > 100 µM
UACC-257 melanoma
  TGI: > 100 µM

## C[n+]1c(-c2ccc(/C=C/C=N\NC(=O)c3ccc(C(=O)N/N=C\C=C\c4ccc(-c5cn6ccccc6[n+]5C)cc4)cc3)cc2)cn2ccccc21
A549 NSCLC
  TGI: > 100 µM
BT-549 breast
  TGI: > 100 µM
LOX IMVI melanoma
  TGI: > 100 µM
MDA-MB-435
  TGI: > 100 µM
NCI-H226 lung
  TGI: > 100 µM
OVCAR-8 ovarian
  TGI: > 100 µM
SW-620 colon
  TGI: > 100 µM
U251 CNS
  TGI: > 100 µM
UACC-257 melanoma
  TGI: > 100 µM

## C=Cc1ccccc1C1(O)C=CC(OC)(OC)C=C1
A549 NSCLC
  TGI: 36.9 µM
MDA-MB-435
  TGI: 14 µM
NCI-H226 lung
  TGI: 80.9 µM
OVCAR-8 ovarian
  TGI: 3.65 µM
SW-620 colon
  TGI: 11.5 µM
U251 CNS
  TGI: 12.7 µM
UACC-257 melanoma
  TGI: 24.1 µM

## CC(=O)OC1CCC2C3CCc4c(C)ccc(OS(=O)(=O)c5ccccc5)c4C3CCC12C (configuration not stated)
BT-549 breast
  TGI: > 100 µM
LOX IMVI melanoma
  TGI: > 100 µM
MDA-MB-435
  TGI: > 100 µM
NCI-H226 lung
  TGI: > 100 µM
SW-620 colon
  TGI: > 100 µM
U251 CNS
  TGI: > 100 µM
UACC-257 melanoma
  TGI: > 100 µM

## C=C(CN(C)C)C(=O)c1ccccc1[N+](=O)[O-]
A549 NSCLC
  GI50: 22.2 µM
  TGI: > 70.5 µM and 41.1 µM
BT-549 breast
  GI50: 24.3 µM
  TGI: 30.6 µM and 60.4 µM
LOX IMVI melanoma
  GI50: 3.98 µM
  TGI: 15 µM and 15.5 µM
MDA-MB-435
  GI50: 3.86 µM
  TGI: 29.7 µM and 15.9 µM
NCI-H226 lung
  GI50: 20.9 µM
  TGI: > 58.3 µM and 47 µM
OVCAR-8 ovarian
  GI50: 6.55 µM
  TGI: 40.9 µM and 32 µM
SW-620 colon
  TGI: 31.3 µM
U251 CNS
  GI50: 17.8 µM
  TGI: 54.5 µM and 31.8 µM
UACC-257 melanoma
  GI50: 14.9 µM
  TGI: 29.7 µM and 32.8 µM

## COc1ccc(NC(=S)NC(=O)c2ccc3c(c2)Sc2ccccc2O3)c([N+](=O)[O-])c1
A549 NSCLC
  TGI: > 100 µM
BT-549 breast
  TGI: 70.5 µM
LOX IMVI melanoma
  TGI: > 100 µM
MDA-MB-435
  TGI: > 100 µM
NCI-H226 lung
  TGI: > 100 µM
OVCAR-8 ovarian
  TGI: > 100 µM
U251 CNS
  TGI: 60.6 µM
UACC-257 melanoma
  TGI: > 100 µM
